ChEMBL document CHEMBL3046790, “Antioxidant potential and antimicrobial screening of some novel imidazole derivatives: greenway efficient one pot synthesis” (Med Chem Res, 2012)
Converted amounts (≈) assume the structure as drawn.

Key:
Type in all cases: functional
[1] = Antioxidant activity assessed as DPPH scavenging activity at 10 uM after 30 min by spectrophotometry
[2] = Antioxidant activity assessed as superoxide scavenging activity at 40 uM after 15 min by PMS/NADH-NBT assay
[3] = Antioxidant activity assessed as hydroxyl radical scavenging activity at 40 uM after 60 min using thiobarbutaric acid by spectrophotometry
[4] = Antioxidant activity assessed as superoxide scavenging activity at 20 uM after 15 min by PMS/NADH-NBT assay
[5] = Antioxidant activity assessed as DPPH scavenging activity after 30 min by spectrophotometry
[6] = Antioxidant activity assessed as DPPH scavenging activity at 50 uM after 30 min by spectrophotometry
[7] = Antioxidant activity assessed as hydroxyl radical scavenging activity at 10 uM after 60 min using thiobarbutaric acid by spectrophotometry
[8] = Antioxidant activity assessed as superoxide scavenging activity at 10 uM after 15 min by PMS/NADH-NBT assay
[9] = Antioxidant activity assessed as superoxide scavenging activity after 15 min by PMS/NADH-NBT assay
[10] = Antioxidant activity assessed as hydroxyl radical scavenging activity after 60 min using thiobarbutaric acid by spectrophotometry
[11] = Antioxidant activity assessed as hydroxyl radical scavenging activity at 60 uM after 60 min using thiobarbutaric acid by spectrophotometry
[12] = Antioxidant activity assessed as superoxide scavenging activity at 80 uM after 15 min by PMS/NADH-NBT assay
[13] = Antioxidant activity assessed as DPPH scavenging activity at 30 uM after 30 min by spectrophotometry
[14] = Antioxidant activity assessed as hydroxyl radical scavenging activity at 20 uM after 60 min using thiobarbutaric acid by spectrophotometry
[15] = Antioxidant activity assessed as hydroxyl radical scavenging activity at 80 uM after 60 min using thiobarbutaric acid by spectrophotometry
[16] = Antioxidant activity assessed as DPPH scavenging activity at 20 uM after 30 min by spectrophotometry
[17] = Antioxidant activity assessed as superoxide scavenging activity at 60 uM after 15 min by PMS/NADH-NBT assay
[18] = Antioxidant activity assessed as superoxide scavenging activity at 100 uM after 15 min by PMS/NADH-NBT assay
[19] = Antioxidant activity assessed as hydroxyl radical scavenging activity at 100 uM after 60 min using thiobarbutaric acid by spectrophotometry
[20] = Antioxidant activity assessed as DPPH scavenging activity at 40 uM after 30 min by spectrophotometry
[21] = test system: Klebsiella pneumoniae; assay: Antimicrobial activity against Klebsiella pneumoniae after 24 hr
[22] = test system: Aspergillus niger; assay: Antimicrobial activity against Aspergillus niger after 24 hr
[23] = test system: Staphylococcus aureus; assay: Antimicrobial activity against Staphylococcus aureus after 24 hr
[24] = test system: Aspergillus flavus; assay: Antimicrobial activity against Aspergillus flavus after 24 hr
[25] = test system: Candida; assay: Antimicrobial activity against Candida-6 after 24 hr; conditions: Candida, 6, 24 h
[26] = test system: Escherichia coli; assay: Antimicrobial activity against Escherichia coli after 24 hr

SMILES | Activity [1] [%] | Activity [2] [%] | Activity [3] [%] | Activity [4] [%] | IC50 [5] [µg/mL] | Activity [6] [%] | Activity [7] [%] | Activity [8] [%] | IC50 [9] [µg/mL] | IC50 [10] [µg/mL] | Activity [11] [%] | Activity [12] [%] | Activity [13] [%] | Activity [14] [%] | Activity [15] [%] | Activity [16] [%] | Activity [17] [%] | Activity [18] [%] | Activity [19] [%] | Activity [20] [%] | further results
O=C1O[C@H]([C@@H](O)CO)C(O)=C1O [ASCORBIC ACID] | 26.5 | 55.5 | 48.6 | 48.8 | 3.1 (≈ 17.6 µM) | 75.4 | 24.3 | 32.6 | 2.8 (≈ 15.9 µM) | 2.72 (≈ 15.4 µM) | 65.3 | 66.5 | 48.8 | 41.3 | 70.4 | 34.5 | 62.1 | 73.5 | 78.5 | 66.5 | –
O=C(O)c1cn(C2CC2)c2cc(N3CCNCC3)c(F)cc2c1=O [CIPROFLOXACIN] | – | – | – | – | – | – | – | – | – | – | – | – | – | – | – | – | – | – | – | – | MIC [21]: 100 µg/mL (≈ 302 µM)
COc1ccc(-n2c(-c3ccc(F)cc3)nc(C)c2C)cc1 | 11.1 | 39 | 43.7 | 39 | 3.46 (≈ 11.7 µM) | 68.7 | 39.1 | 38.1 | 5.2 (≈ 17.5 µM) | 3.84 (≈ 13 µM) | 48.3 | 45.7 | 46.5 | 48.3 | 50.6 | 20.2 | 41.9 | 41 | 52.9 | 64.6 | MIC [22]: 25 µg/mL (≈ 84.4 µM); MIC [23]: 50 µg/mL (≈ 169 µM); MIC [24]: 25 µg/mL (≈ 84.4 µM); MIC [21]: 50 µg/mL (≈ 169 µM); Activity [5]: Dose-dependent effect; Activity [9]: Dose-dependent effect; MIC [25]: 25 µg/mL (≈ 84.4 µM); Activity [10]: Dose-dependent effect; MIC [26]: 25 µg/mL (≈ 84.4 µM)
COc1cc(OC)cc(-n2c(-c3ccccc3)nc(C)c2C)c1 | 17.2 | 49.5 | 47.1 | 32.4 | 3.8 (≈ 12.3 µM) | 55.5 | 34.5 | 13.3 | 4.16 (≈ 13.5 µM) | 4.14 (≈ 13.4 µM) | 54 | 59 | 52.5 | 39.1 | 55.2 | 20.2 | 53.3 | 61 | 58.6 | 57.6 | MIC [22]: 25 µg/mL (≈ 81.1 µM); MIC [23]: 25 µg/mL (≈ 81.1 µM); MIC [24]: 25 µg/mL (≈ 81.1 µM); MIC [21]: 100 µg/mL (≈ 324 µM); Activity [5]: Dose-dependent effect; Activity [9]: Dose-dependent effect; MIC [25]: 25 µg/mL (≈ 81.1 µM); Activity [10]: Dose-dependent effect; MIC [26]: 50 µg/mL (≈ 162 µM)
COc1ccc(-n2c(-c3ccccc3)nc(C)c2C)cc1 | 14.1 | 63.1 | 43.7 | 28.1 | 3.64 (≈ 13.1 µM) | 55.5 | 35.6 | 10.5 | 3.74 (≈ 13.4 µM) | 4.5 (≈ 16.2 µM) | 48.3 | 68.4 | 59.6 | 40.2 | 50.6 | 28.3 | 64.9 | 59.6 | 52.9 | 56.6 | MIC [22]: 100 µg/mL (≈ 359 µM); MIC [23]: 50 µg/mL (≈ 180 µM); MIC [24]: 25 µg/mL (≈ 89.8 µM); MIC [21]: 100 µg/mL (≈ 359 µM); Activity [5]: Dose-dependent effect; Activity [9]: Dose-dependent effect; MIC [25]: 25 µg/mL (≈ 89.8 µM); Activity [10]: Dose-dependent effect; MIC [26]: 25 µg/mL (≈ 89.8 µM)
C[C@@H]1[C@H](O)[C@@H](C)/C=C/C=C/C=C/C=C/C=C/C=C/C=C/[C@H](O[C@@H]2O[C@H](C)[C@@H](O)[C@H](N)[C@@H]2O)C[C@@H]2O[C@](O)(C[C@@H](O)C[C@@H](O)[C@H](O)CC[C@@H](O)C[C@@H](O)CC(=O)O[C@H]1C)C[C@H](O)[C@H]2C(=O)O [AMPHOTERICIN B] | – | – | – | – | – | – | – | – | – | – | – | – | – | – | – | – | – | – | – | – | MIC [22]: 50 µg/mL (≈ 54.1 µM); MIC [24]: 25 µg/mL (≈ 27.1 µM); MIC [25]: 12.5 µg/mL (≈ 13.5 µM)
COc1cc(OC)cc(-n2c(-c3ccc(F)cc3)nc(C)c2C)c1 | 12.1 | 55.2 | 47.1 | 24.8 | 3.98 (≈ 12.2 µM) | 56.6 | 35.6 | 21.9 | 4.16 (≈ 12.7 µM) | 4.18 (≈ 12.8 µM) | 57.5 | 58.1 | 42.4 | 40.2 | 55.2 | 19.2 | 60 | 55.2 | 54 | 57.6 | MIC [22]: 50 µg/mL (≈ 153 µM); MIC [23]: 50 µg/mL (≈ 153 µM); MIC [24]: 50 µg/mL (≈ 153 µM); MIC [21]: 100 µg/mL (≈ 306 µM); Activity [5]: Dose-dependent effect; Activity [9]: Dose-dependent effect; MIC [25]: 50 µg/mL (≈ 153 µM); Activity [10]: Dose-dependent effect; MIC [26]: 50 µg/mL (≈ 153 µM)
